Assay results from patent US10376520B2, “Methods for the treatment of cardiovascular disorders” (Galapagos NV, priority 2015, dated 2019).

Test system: RA patients
Experiment: Total cholesterol determination, Study 1 (RA patients with inadequate response to methotrexate, add-on to MTX)
Type: in vivo, human
Conditions: for [Total cholesterol] Median CFB / [total cholesterol] Mean CFB: Study 1 12 weeks results
Procedure: Double-blind, placebo-controlled add on study in subjects with moderately to severely active RA who have an inadequate response to methotrexate (MTX) (oral or parenteral).
595 subjects randomized to one of 6 dose regimens of Compound 1 (dosed as a [Compound 1:HCl:3H2O]) (3 dose levels administered either once or twice daily) or placebo on top of each subject's stable dose of MTX.
Compound 1 (dosed as a [Compound 1:HCl:3H2O]) is dosed for twelve weeks once daily (q.d.) (50 mg, 100 mg or 200 mg) or twice daily (b.i.d.) (25 mg, 50 mg or 100 mg); or placebo.
At Week 12, the subjects on placebo who have not achieved 20% improvement in swollen joint count (SJC66) and tender joint count (TJC68) are re-randomized automatically to receive Compound 1 (dosed as a [Compound 1:HCl:3H2O]) either at 100 mg q.d. or 50 mg b.i.d. doses in a blinded fashion; subjects on 50 mg q.d. who have not achieved 20% improvement in SJC66 and TJC68 will be assigned to 100 mg q.d. and subjects on 25 mg b.i.d. that have not achieved a 20% improvement in SJC66 and TJC68 will be assigned to 50 mg b.i.d. Subjects who switch treatment at week 12 are handled as if they discontinued at week 12 for the purpose of statistical analysis, whereas subjects in the other groups will maintain their randomized treatment until Week 24.
This method is based on the determination of Δ^4 cholestenone after enzymatic cleavage of the cholesterol ester by cholesterol esterase, conversion of cholesterol by cholesterol oxidase, and subsequent measurement by the Trinder reaction of the hydrogen peroxide formed (Allain et al., 1974).
Cholesterol esters are cleaved by the action of cholesterol esterase to yield free cholesterol and fatty acids. Cholesterol oxidase then catalyzes the oxidation of cholesterol to cholest-4-en-3-one and hydrogen peroxide. In the presence of peroxidase, the hydrogen peroxide formed effects the oxidative coupling of phenol and 4-aminophenazone to form a red quinone-imine dye. The color intensity of the dye formed is directly proportional to the cholesterol concentration. It is determined by measuring the increase in absorbance.
Human serum and plasma samples cholesterol determination was done on a Roche/Hitachi Cobas c 701/702 system which automatically calculate the analyte concentration of each sample.

SMILES: O=C(Nc1nc2cccc(-c3ccc(CN4CCS(=O)(=O)CC4)cc3)n2n1)C1CC1 [Compound 1, cyclopropanecarboxylic acid {5-[4-(1,1-dioxo-thiomorpholin-4-ylmethyl)-phenyl]-[1,2,4]triazolo[1,5-a]pyridin-2yl}-amide]
- [total cholesterol] Mean percentage CFB - 12 weeks results (50 mg q.d. (N = 82), week 1): 1%
- [total cholesterol] Mean percentage CFB - 12 weeks results (50 mg q.d. (N = 82), week 2): 1%
- [total cholesterol] Mean percentage CFB - 12 weeks results (50 mg q.d. (N = 82), week 4): 1%
- [total cholesterol] Mean percentage CFB - 12 weeks results (50 mg q.d. (N = 82), week 8): 3%
- [total cholesterol] Mean percentage CFB - 12 weeks results (50 mg q.d. (N = 82), week 12): 5%
- [total cholesterol] Mean percentage CFB - 12 weeks results (100 mg q.d. (N = 85), week 1): 4%
- [total cholesterol] Mean percentage CFB - 12 weeks results (100 mg q.d. (N = 85), week 2): 2%
- [total cholesterol] Mean percentage CFB - 12 weeks results (100 mg q.d. (N = 85), week 4): 5%
- [total cholesterol] Mean percentage CFB - 12 weeks results (100 mg q.d. (N = 85), week 8): 4%
- [total cholesterol] Mean percentage CFB - 12 weeks results (100 mg q.d. (N = 85), week 12): 5%
- [total cholesterol] Mean percentage CFB - 12 weeks results (200 mg q.d. (N = 86), week 1): 6%
- [total cholesterol] Mean percentage CFB - 12 weeks results (200 mg q.d. (N = 86), week 2): 7%
- [total cholesterol] Mean percentage CFB - 12 weeks results (200 mg q.d. (N = 86), week 4): 8%
- [total cholesterol] Mean percentage CFB - 12 weeks results (200 mg q.d. (N = 86), week 8): 10%
- [total cholesterol] Mean percentage CFB - 12 weeks results (200 mg q.d. (N = 86), week 12): 10%
- [total cholesterol] Mean percentage CFB - 12 weeks results (2 x 25 mg b.i.d. (N = 86), week 1): 2%
- [total cholesterol] Mean percentage CFB - 12 weeks results (2 x 25 mg b.i.d. (N = 86), week 2): 3%
- [total cholesterol] Mean percentage CFB - 12 weeks results (2 x 25 mg b.i.d. (N = 86), week 4): 3%
- [total cholesterol] Mean percentage CFB - 12 weeks results (2 x 25 mg b.i.d. (N = 86), week 8): 3%
- [total cholesterol] Mean percentage CFB - 12 weeks results (2 x 25 mg b.i.d. (N = 86), week 12): 5%
- [total cholesterol] Mean percentage CFB - 12 weeks results (2 x 50 mg b.i.d. (N = 85), week 1): 3%
- [total cholesterol] Mean percentage CFB - 12 weeks results (2 x 50 mg b.i.d. (N = 85), week 2): 4%
- [total cholesterol] Mean percentage CFB - 12 weeks results (2 x 50 mg b.i.d. (N = 85), week 4): 7%
- [total cholesterol] Mean percentage CFB - 12 weeks results (2 x 50 mg b.i.d. (N = 85), week 8): 6%
- [total cholesterol] Mean percentage CFB - 12 weeks results (2 x 50 mg b.i.d. (N = 85), week 12): 6%
- [total cholesterol] Mean percentage CFB - 12 weeks results (2 x 100 mg b.i.d. (N = 84), week 1): 7%
- [total cholesterol] Mean percentage CFB - 12 weeks results (2 x 100 mg b.i.d. (N = 84), week 2): 8%
- [total cholesterol] Mean percentage CFB - 12 weeks results (2 x 100 mg b.i.d. (N = 84), week 4): 10%
- [total cholesterol] Mean percentage CFB - 12 weeks results (2 x 100 mg b.i.d. (N = 84), week 8): 15%
- [total cholesterol] Mean percentage CFB - 12 weeks results (2 x 100 mg b.i.d. (N = 84), week 12): 15%
- [Total cholesterol] Median CFB (50 mg q.d., week 1): 0.05 mmol/L
- [total cholesterol] Mean CFB (50 mg q.d., week 1): 0.0 mmol/L
- [Total cholesterol] Median CFB (50 mg q.d., week 2): 0.04 mmol/L
- [total cholesterol] Mean CFB (50 mg q.d., week 2): 0.1 mmol/L
- [Total cholesterol] Median CFB (50 mg q.d., week 4): 0.06 mmol/L
- [total cholesterol] Mean CFB (50 mg q.d., week 4): 0.1 mmol/L
- [Total cholesterol] Median CFB (50 mg q.d., week 8): 0.16 mmol/L
- [total cholesterol] Mean CFB (50 mg q.d., week 8): 0.1 mmol/L
- [Total cholesterol] Median CFB (50 mg q.d., week 12): 0.20 mmol/L
- [total cholesterol] Mean CFB (50 mg q.d., week 12): 0.2 mmol/L
- [Total cholesterol] Median CFB (100 mg q.d., week 1): 0.14 mmol/L
- [total cholesterol] Mean CFB (100 mg q.d., week 1): 0.2 mmol/L
- [Total cholesterol] Median CFB (100 mg q.d., week 2): 0.07 mmol/L
- [total cholesterol] Mean CFB (100 mg q.d., week 2): 0.1 mmol/L
- [Total cholesterol] Median CFB (100 mg q.d., week 4): 0.25 mmol/L
- [total cholesterol] Mean CFB (100 mg q.d., week 4): 0.2 mmol/L
- [Total cholesterol] Median CFB (100 mg q.d., week 8): 0.09 mmol/L
- [total cholesterol] Mean CFB (100 mg q.d., week 8): 0.1 mmol/L
- [Total cholesterol] Median CFB (100 mg q.d., week 12): 0.30 mmol/L
- [total cholesterol] Mean CFB (100 mg q.d., week 12): 0.2 mmol/L
- [Total cholesterol] Median CFB (200 mg q.d., week 1): 0.25 mmol/L
- [total cholesterol] Mean CFB (200 mg q.d., week 1): 0.3 mmol/L
- [Total cholesterol] Median CFB (200 mg q.d., week 2): 0.34 mmol/L
- [total cholesterol] Mean CFB (200 mg q.d., week 2): 0.3 mmol/L
- [Total cholesterol] Median CFB (200 mg q.d., week 4): 0.33 mmol/L
- [total cholesterol] Mean CFB (200 mg q.d., week 4): 0.4 mmol/L
- [Total cholesterol] Median CFB (200 mg q.d., week 8): 0.54 mmol/L
- [total cholesterol] Mean CFB (200 mg q.d., week 8): 0.4 mmol/L
- [Total cholesterol] Median CFB (200 mg q.d., week 12): 0.26 mmol/L
- [total cholesterol] Mean CFB (200 mg q.d., week 12): 0.5 mmol/L
- [Total cholesterol] Median CFB (2 x 25 mg b.i.d., week 1): 0.12 mmol/L
